Experimental data as given in article PMC10877564, “Activity of Gut-Derived Nisin-like Lantibiotics against Human Gut Pathogens and Commensals” (ACS Chemical Biology, 2024).
Positions of bridges follow the written chain, without caps; N, C: chain ends. Non-standard residues stand in square brackets, D forms with d. No end group written: not given here. Abu = CC[C@H](N)C(=O)O; Dhb = C/C=C(\N)C(=O)O; Dha = C=C(N)C(=O)O

What was measured:
[1] = system: B. obeum MSK.18.40; assay: MIC assay, anaerobic broth dilution; format: cell-based, Blautia obeum; details: BHIS, 37 °C, 48 h, 3-fold serial dilution
Description: (§1) Antibiotic treatment may result in collateral damage to commensal bacteria in the human microbiome, leading to dysbiosis and susceptibility to various diseases.[44] How lantibiotics impact Gram-positive commensals from the human gut has remained unclear. Therefore, we performed antimicrobial activity tests of these lantibiotics against selected Gram-positive human gut commensals, most of which belong to the Lachnospiraceae family, one of the most abundant bacterial families in the human gut.[27] In general, human gut commensals were more susceptible to the set of investigated lantibiotics compared to pathogens (Figure 3). […]
(§2) Isolation of human gut commensal bacteria
(§3) Isolation and growth of commensal bacteria was done as previously reported.5 Briefly, fresh donor fecal samples were transferred into an anaerobic chamber (Coy Labs) within 1 h of collection. The anaerobic chamber was maintained using a gas mix consisting of 5% hydrogen, 5% carbon dioxide and 90% nitrogen, and hydrogen was maintained at ~3.0% using an anaerobic gas infuser. […]
(§4) All MIC assays were performed under anaerobic condition. […] Lantibiotics were dissolved in DPBS, and concentrations were determined by BCA assay (Pierce) according to the manufacturer’s protocol. […]

[2] = Liposome permeabilization assay, liposomes without lipid II; format: biochemical; details: 375 nM lantibiotic; DOPC, 50 µM phospholipid; pyranine fluorescence, 30 min; three replicates; Figure S7
Description: (§5) To further investigate the mechanisms of action of these nisin-like lantibiotics, we performed liposome permeabilization assays using liposomes with or without lipid II (Figure S7).
(§6) Liposome Permeabilization Assay
(§7) To prepare pyranine encapsulated liposomes, DOPC (25 mg/mL in CHCl3, purchased from Avanti) was deposited into a vial and mixed with lipid II (dissolved in 2:1 CHCl3: MeOH, prepared chemoenzymatically).6 The solvent was removed using a stream of N2 leaving a thin film. Residual solvent was removed by storing it overnight in a vacuum desiccator. The film was rehydrated in buffer (5 mM Tricine, 5 mM MES, 5 mM NaCl, 1 mM pyranine pH = 6.0) and suspended with vortexing. The suspension was subjected to freeze-thaw three times before extrusion through a […] polycarbonate filter (21 passes). Excess pyranine was removed by passing the liposome solution through a Sephadex G-50 column previously equilibrated with buffer (5 mM Tricine, 5 mM MES, 5 mM NaCl, pH = 6.0). The eluted liposome solution containing the highest concentration of encapsulated pyranine (as determined visually with a UV lamp) was immediately placed on ice. Phospholipid concentration was determined by NMR as described previously.7 To measure liposome permeabilization, to a 96 well black polystyrene plate was added buffer (5 mM Tricine, 5 mM MES, 5 mM NaCl, pH = 8.0; 97 µL) and liposome solution (3 µL; 50 µM phospholipid concentration during assay). The wells were allowed to equilibrate for 8 min at room temperature then antibiotic was added. The antibiotic concentration in each well was 375 nM.
(§8) Pyranine fluorescence was monitored for 30 min then Triton X-100 was added to a final concentration of 0.1% and pyranine fluorescence was monitored for an additional 5 min. The pyranine fluorescence signal was max-min normalized. […]
(§9) Fig. S7 Liposome permeabilization assays of nisin-like lantibiotics. (A) Scheme of liposome […]
(§10) low fluorescence. Fluorescence increases upon liposome permeabilization and pH increase . (B) Fraction of liposomes permeabilized by lantibiotics (375 nM). Liposomes were composed of DOPC with or without 0.1 mol% lipid II. Error bars represent the standard of deviation of three […]
(§11) (1 picture or pasted object on this page, not shown here)

[3] = system: F. fissicatena MSK.9.3; assay: MIC assay, anaerobic broth dilution; format: cell-based, Faecalicatena fissicatena; details: BHIS, 37 °C, 48 h, 3-fold serial dilution
Description: Antibiotic treatment may result in collateral damage to commensal bacteria in the human microbiome, leading to dysbiosis and susceptibility to various diseases.[44] How lantibiotics impact Gram-positive commensals from the human gut has remained unclear. Therefore, we performed antimicrobial activity tests of these lantibiotics against selected Gram-positive human gut commensals, most of which belong to the Lachnospiraceae family, one of the most abundant bacterial families in the human gut.[27] In general, human gut commensals were more susceptible to the set of investigated lantibiotics compared to pathogens (Figure 3).
Elution Buffer (4 M guanidine hydrochloride, 20 mM Tris HCl, pH 7.5 at 25 °C, 100 mM NaCl, 1 M imidazole). Peptides eluted from the Ni resin were concentrated and desalted using 3 kDa Amicon filters (Millipore). For leader peptide removal, the peptide (1:20 trypsin to peptide) was incubated with the trypsin protease in 50 mM Tris-HCl, pH 8 overnight at 37 °C. Lastly, the core peptides were further purified with HPLC using an Agilent 1200 instrument (Agilent) as specified […]
in general methods. […]
Isolation of human gut commensal bacteria […]
as §4

[4] = system: B. luti MSK.20.18; assay: MIC assay, anaerobic broth dilution; format: cell-based, Blautia luti; details: BHIS, 37 °C, 48 h, 3-fold serial dilution
Description: as §1, §2, §3, §4

[5] = Liposome permeabilization assay, liposomes with lipid II; format: biochemical; details: 375 nM lantibiotic; DOPC with 0.1 mol% lipid II, 50 µM phospholipid; pyranine fluorescence, 30 min, room temperature; three replicates; Figure S7B
Description: as §5, §6, §7, §8, §9, §10, §11

[6] = system: S. epidermidis SK135 (MRSE); assay: MIC assay, anaerobic broth dilution; format: cell-based, Staphylococcus epidermidis; details: BHIS, 37 °C, 48 h, 3-fold serial dilution
Description: Next, we set out to test the antimicrobial activities of these purified lantibiotics against a panel of Gram-positive bacteria that are representatives of some of the most prevalent human pathogens: VRE, Methicillin-resistant S. aureus USA300 (MRSA), Methicillin-resistant Staphylococcus epidermidis SK135 (MRSE), Listeria monocytogenes 10403S, and Clostridioides difficile VPI10463. We examined the growth of bacteria in a 96-well plate under a concentration gradient of lantibiotics under anaerobic conditions (Figure S2B). […]
For broth cultures, isolates were grown in pre-reduced BHI supplemented with 5 g/L yeast extract (Difco, BD) and 0.1% L-cysteine under anaerobic condition.
Minimal Inhibition Concentration (MIC) assay
All MIC assays were performed under anaerobic condition. Stationary bacterial culture in BHIS (BHI supplemented with 5 g/L yeast extract and 0.1% L-cysteine) were inoculated 1:100 to wells containing 200 µL BHIS in U-bottom 96-well plates. Lantibiotics were dissolved in DPBS, and concentrations were determined by BCA assay (Pierce) according to the manufacturer’s protocol.
Lantibiotic stock solutions were added to wells to reach desired final concentration, with 3-fold serial dilution across rows to create concentration gradients. Bacteria-inoculated wells without lantibiotics served as control. […]

nisin A (I[Dhb]AI[Dha]LC[Abu]PGCK[Abu]GALMGCNMK[Abu]A[Abu]CHCSIHV[Dha]K; thioether 8-11, 13-19, 23-26, 25-28, 3-7; UniProt P13068 24-57, looked up) [prototypical class I lantibiotic produced by L. lactis, food preservative; commercial nisin A]
nisin A MIC [1]: 0.0110 µM
permeabilization of liposomes without lipid II compared to liposomes with lipid II (in words) [2]: decreased permeabilization activities
nisin A MIC [3]: 0.0329 µM
nisin A MIC [4]: 0.0329 µM
permeabilization of lipid II-containing liposomes (in words) [5]: strongly induced permeabilization
nisin A MIC [6]: 2.67 µM
